Test results taken from article PMC6013775, “Inhibition of the key enzyme of sialic acid biosynthesis by C6-Se modified N-acetylmannosamine analogs” (Chemical Science, 2016).
Values joined by “and” are separate entries in the source; they are usually repeats but may differ in a detail not shown here. Identical values can stand only once.

Legend:
[1] = molecular target: hexokinase (HK) from yeast; experiment: Hexokinase inhibition, coupled optical assay; assay type: biochemical; conditions: glucose substrate
Description: (§1) With the potent diselenide compound 14b in hand, we further studied the binding properties of this potent MNK inhibitor, which is to our knowledge the strongest MNK inhibitor reported to date. Diselenide 14b inhibited MNK activity in a dose dependent manner (Fig. 2A). […] Additionally, we tested if diselenide 14b influenced the GNE activity of the bifunctional GNE/MNK. […] To evaluate the specificity of the inhibitor towards other sugar kinases, we performed further inhibition studies using human GlcNAc kinase (GNK) and hexokinase (HK) from yeast (details in ESI ^†).
Enzyme activity and inhibition studies using N-acetylmannosamine kinase, N-acetylglucosamine kinase and yeast hexokinase
Evaluation MNK activity in presence of the compounds 11, 12, 14b, 16b and 18b The effects of compounds 11, 12, 14b, 16b, or 18b on MNK enzyme activity were evaluated using a coupled optical assay. 55 µl reaction mixture contained the following buffers and reagents: 39.5 µl buffer A (65 mM MgCl2, 200 mM Tris-HCl, pH 8.1), 5 µl ATP (50 mM), 3.5 µl NADH (30 mM), 2 µl phosphoenolpyruvate (100 mM), 2 U pyruvate-kinase, 2 U lactate-dehydrogenase, 5 µl ManNAc of varying concentrations. Subsequently, 10 µl of the compounds 11, 12, 14b, 16b and 18b were added in varying concentrations. The reaction was initiated by adding 0.6 µg MNK in 35 µL buffer B (10 mM Tris-HCl, 150 mM NaCl, pH 8.0). […]

[2] = molecular target: T1, UDP-GlcNAc-2-epimerase (GNE) activity of GNE/MNK (Mus musculus, UniProt Q91WG8); experiment: Colorimetric GNE activity assay in mouse liver cytosol; assay type: biochemical; conditions: 1 mM UDP-GlcNAc, 45 min at 37 °C, read-out: IC50 for inhibiting GNE activity
T1 construct: Analysis of GNE/MNK in mouse liver cytosol; from tissue; host or cells: mouse liver cytosol (supernatant of liver homogenate)
T1 sequence (Q91WG8 1-722): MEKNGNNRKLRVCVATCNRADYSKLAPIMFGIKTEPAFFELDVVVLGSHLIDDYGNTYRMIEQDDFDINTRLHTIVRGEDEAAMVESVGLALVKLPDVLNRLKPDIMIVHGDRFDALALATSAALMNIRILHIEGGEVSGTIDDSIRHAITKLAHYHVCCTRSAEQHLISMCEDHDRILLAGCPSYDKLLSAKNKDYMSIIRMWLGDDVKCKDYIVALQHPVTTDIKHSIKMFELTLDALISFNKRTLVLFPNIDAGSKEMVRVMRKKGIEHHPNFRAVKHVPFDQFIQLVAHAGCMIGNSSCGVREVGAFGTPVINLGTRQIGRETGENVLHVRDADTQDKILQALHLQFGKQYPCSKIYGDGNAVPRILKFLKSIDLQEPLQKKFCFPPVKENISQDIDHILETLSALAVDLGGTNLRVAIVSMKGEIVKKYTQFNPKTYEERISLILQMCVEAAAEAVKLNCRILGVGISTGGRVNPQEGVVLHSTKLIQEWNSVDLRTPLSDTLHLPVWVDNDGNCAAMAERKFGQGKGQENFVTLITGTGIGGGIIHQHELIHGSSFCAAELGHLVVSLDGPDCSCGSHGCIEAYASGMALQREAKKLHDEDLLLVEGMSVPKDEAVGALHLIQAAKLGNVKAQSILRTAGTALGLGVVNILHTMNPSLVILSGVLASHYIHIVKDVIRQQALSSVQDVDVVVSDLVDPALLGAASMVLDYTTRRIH
Description: as §1
Evaluation of the influence of 14b on UDP-GlcNAc-2-epimerase activity
To study, if diselenide 14b interferes with the activity of the GNE domain of the bifunctional enzyme, we used enzymes from mouse liver homogenates. […] The sample was incubated at 37 °C for 20 min and the absorbance was […]

In the case of CC(=O)N[C@@H]1C(O)O[C@H](C[Se][Se]C[C@H]2OC(O)[C@@H](NC(C)=O)[C@@H](O)[C@@H]2O)[C@@H](O)[C@@H]1O (some centres unmarked) [Compound 14b], the IC50 [1] is reported as > 5 mM and the IC50 [2] is reported as ~200 µM and 182 µM.
